Data taken from ChEMBL document CHEMBL6153109, “Switching Roles─Exploring Concentration-Dependent Agonistic versus Antagonistic Behavior of Integrin Ligands” (J Med Chem, 2025).
pIC50: −log10 of the molar value. Values belong to the compound of their own block, whether it stands above or below them. Activity calls are given as the source filed them. The calls are words filed in the database; no cut-off is given here.

Experiments:
[1] = Drug localization in cell membrane of human RKO cells overexpressing integrin alpha5beta1 at 1 uM measured within 3 mins by CellMask green staining based fluorescence analysis; assay type: ADME, cell membranes; settings: 0.05 h
[2] = Drug localization in cell membrane of human RKO cells overexpressing integrin alpha5beta1 at 1 uM measured at 30 mins by CellMask green staining based fluorescence analysis; assay type: ADME, cell membranes; settings: 0.5 h
[3] = Drug uptake in human M21 cells overexpressing integrin alphaVbeta3 at 1 uM measured at 60 to 300 mins by Hoechst 33342 staining based fluorescence analysis; assay type: ADME, cell-based; settings: m21, 1 µM, time 60-300 min
[4] = Drug uptake in human RKO cells overexpressing integrin alpha5beta1 at 1 uM measured at 60 to 300 mins by Hoechst 33342 staining based fluorescence analysis; assay type: ADME, cell-based; settings: time 60-300 min
Integrin alpha-V/beta-3 [5] = molecular target: T1, Integrin alpha-V/beta-3 (Homo sapiens, UniProt P05106+P06756); test: Agonist activity at integrin alphaVbeta3 in human M21 cells assessed as increase in p-ERK1/2 expression at 1 uM incubated for 24 hrs by Western blot analysis; assay type: cell-based; settings: filed as agonist
Integrin alpha-5/beta-1 [6] = molecular target: T2, Integrin alpha-5/beta-1 (Homo sapiens, UniProt P05556+P08648); test: Agonist activity at integrin alpha5beta1 in human OV-MZ-6 cells assessed as increase in p-FAK expression at 1 uM incubated for 24 hrs by Western blot analysis; assay type: cell-based
Integrin alpha-5/beta-1 [7] = molecular target: T2, Integrin alpha-5/beta-1; test: Agonist activity at integrin alpha5beta1 in human OV-MZ-6 cells assessed as increase in p-ERK1/2 expression at 1 uM incubated for 24 hrs by Western blot analysis; assay type: cell-based
Integrin alpha-V/beta-3 [8] = molecular target: T1, Integrin alpha-V/beta-3; test: Agonist activity at integrin alphaVbeta3 in human M21 cells assessed as increase in FAK expression at 1 nM incubated for 5 to 60 mins by Western blot analysis; assay type: cell-based; settings: time 5-60 min
Integrin alpha-V/beta-6 [9] = molecular target: T3, Integrin alpha-V/beta-6 (Homo sapiens, UniProt P06756+P18564); test: Agonist activity at integrin alphaVbeta6 in human HN cells assessed as fold increase in p-FAK expression at 1 nM measured within 30 mins by Western blot analysis (reference value: 1); assay type: cell-based; settings: filed as agonist
Integrin alpha-V/beta-6 [10] = molecular target: T3, Integrin alpha-V/beta-6; test: Agonist activity at integrin alphaVbeta6 in human HN cells assessed as fold increase in p-FAK expression at 1 uM measured within 30 mins by Western blot analysis (reference value: 1); assay type: cell-based; settings: filed as agonist
Integrin alpha-5/beta-1 [11] = molecular target: T2, Integrin alpha-5/beta-1; test: Agonist activity at integrin alpha5beta1 in human OV-MZ-6 cells assessed as fold increase in FAK expression at 1 nM measured after 5 mins by Western blot analysis (reference value: 1); assay type: cell-based; settings: filed as agonist
Integrin alpha-5/beta-1 [12] = molecular target: T2, Integrin alpha-5/beta-1; test: Agonist activity at integrin alpha5beta1 in human OV-MZ-6 cells assessed as increase in FAK expression at 1 nM measured after 30 to 60 mins by Western blot analysis; assay type: cell-based; settings: time 30-60 min
Integrin alpha-5/beta-1 [13] = molecular target: T2, Integrin alpha-5/beta-1; test: Agonist activity at integrin alpha5beta1 in human OV-MZ-6 cells assessed as increase in FAK expression at 1 uM measured after 5 to 60 mins by Western blot analysis; assay type: cell-based; settings: time 5-60 min
Integrin alpha-V/beta-3 [14] = molecular target: T1, Integrin alpha-V/beta-3; test: Agonist activity at integrin alphaVbeta3 in human M21 cells assessed as increase in p-FAK expression at 1 nM incubated for 5 to 60 mins by Western blot analysis; assay type: cell-based; settings: time 5-60 min
OV-MZ-6 [15] = test: Inhibition of cell migration in human OV-MZ-6 cells expressing integrin alpha5beta1 assessed as delay in wound gap closure at 1 uM measured within 24 hrs by wound scratch assay; assay type: functional, cell-based
OV-MZ-6 [16] = test: Inhibition of cell migration in human OV-MZ-6 cells expressing integrin alpha5beta1 assessed as delay in wound gap closure at 1 uM measured within 72 hrs by wound scratch assay; assay type: functional, cell-based
M21 [17] = test: Inhibition of cell migration in human M21 cells expressing integrin alphaVbeta3 assessed as delay in wound gap closure at 1 to 1000 nM measured after 9 to 72 hrs by wound scratch assay; assay type: functional, cell-based; settings: dose 1-1000 nM, time 9-72 hrs
OV-MZ-6 [18] = test: Inhibition of cell migration in human OV-MZ-6 cells expressing integrin alpha5beta1 assessed as delay in wound gap closure at 1 nM measured after 9 to 72 hrs by wound scratch assay; assay type: functional, cell-based; settings: time 9-72 hrs
OV-MZ-6 [19] = test: Inhibition of cell adhesion in human OV-MZ-6 cells expressing integrin alpha5beta1 at 1 uM measured after 48 hrs by microscopic imaging analysis; assay type: functional, cell-based
OV-MZ-6 [20] = test: Inhibition of cell adhesion in human OV-MZ-6 cells expressing integrin alpha5beta1 at 1 nM measured after 48 hrs by microscopic imaging analysis; assay type: functional, cell-based
OV-MZ-6 [21] = test: Inhibition of cell migration in human OV-MZ-6 cells expressing integrin alpha5beta1 assessed as delay in wound gap closure at 1 to 1000 nM measured after 72 hrs by wound scratch assay; assay type: functional, cell-based; settings: dose 1-1000 nM
M21 [22] = test: Inhibition of cell migration in human M21 cells expressing integrin alphaVbeta3 assessed as delay in wound gap closure at 1 nM measured after 9 to 72 hrs by wound scratch assay; assay type: functional, cell-based; settings: time 9-72 hrs
Integrin alpha-V/beta-3 [23] = molecular target: T1, Integrin alpha-V/beta-3; test: Agonist activity at integrin alphaVbeta3 in human M21 cells assessed as fold increase in FAK expression at 1 uM incubated for 24 hrs by Western blot analysis; assay type: cell-based; settings: filed as agonist
Integrin alpha-5/beta-1 [24] = molecular target: T2, Integrin alpha-5/beta-1; test: Agonist activity at integrin alpha5beta1 in human OV-MZ-6 cells assessed as fold increase in p-ERK1/2 expression at 1 uM incubated for 24 hrs by Western blot analysis; assay type: cell-based; settings: filed as agonist
Integrin alpha-V/beta-3 [25] = molecular target: T1, Integrin alpha-V/beta-3; test: Agonist activity at integrin alphaVbeta3 in human M21 cells assessed as increase in p-FAK expression at 1 uM incubated for 24 hrs by Western blot analysis; assay type: cell-based
Integrin alpha-5/beta-1 [26] = molecular target: T2, Integrin alpha-5/beta-1; test: Agonist activity at integrin alpha5beta1 in human OV-MZ-6 cells assessed as fold increase in FAK expression at 1 uM incubated for 24 hrs by Western blot analysis (reference value: 1); assay type: cell-based; settings: filed as agonist
Integrin alpha-V/beta-3 [27] = molecular target: T1, Integrin alpha-V/beta-3; test: Agonist activity at integrin alphaVbeta3 in human M21 cells assessed as increase in FAK expression at 1 uM incubated for 5 to 60 mins by Western blot analysis; assay type: cell-based; settings: time 5-60 min
Integrin alpha-V/beta-3 [28] = molecular target: T1, Integrin alpha-V/beta-3; test: Agonist activity at integrin alphaVbeta3 in human M21 cells assessed as increase in p-FAK expression at 1 to 1000 nM incubated for 5 to 60 mins by Western blot analysis; assay type: cell-based; settings: dose 1-1000 nM, time 5-60 min
Integrin alpha-5/beta-1 [29] = molecular target: T2, Integrin alpha-5/beta-1; test: Agonist activity at integrin alpha5beta1 in human OV-MZ-6 cells assessed as increase in FAK expression at 1 nM incubated for 5 to 60 mins by Western blot analysis; assay type: cell-based; settings: filed as agonist, time 5-60 min
Integrin alpha-5/beta-1 [30] = molecular target: T2, Integrin alpha-5/beta-1; test: Agonist activity at integrin alpha5beta1 in human OV-MZ-6 cells assessed as fold increase in p-FAK expression at 1 nM incubated for 5 mins by Western blot analysis (reference value: 1); assay type: cell-based; settings: filed as agonist
Integrin alpha-5/beta-1 [31] = molecular target: T2, Integrin alpha-5/beta-1; test: Agonist activity at integrin alpha5beta1 in human OV-MZ-6 cells assessed as increase in p-FAK expression at 1 nM measured after 60 mins by Western blot analysis; assay type: cell-based
M21 [32] = test: Inhibition of cell migration in human M21 cells expressing integrin alphaVbeta3 assessed as cell coverage at 1 uM measured within 72 hrs by wound scratch assay (reference value: 95 %); assay type: functional; parameters: scale not given: the % may be the effect or the level left
M21 [33] = test: Inhibition of cell adhesion in human M21 cells expressing integrin alphaVbeta3 at 1 uM measured after 48 hrs by microscopic imaging analysis; assay type: functional, cell-based
M21 [34] = test: Inhibition of cell adhesion in human M21 cells expressing integrin alphaVbeta3 at 1 nM measured after 48 hrs by microscopic imaging analysis; assay type: functional, cell-based
Integrin alpha-V/beta-3 [35] = molecular target: T1, Integrin alpha-V/beta-3; test: Competitive binding affinity to human Integrin alphaVbeta3 incubated for 1 hrs in presence of vitronectin by ELISA based spectrophotometric analysis; assay type: protein-complex assay
Integrin alpha-5/beta-1 [36] = molecular target: T2, Integrin alpha-5/beta-1; test: Competitive binding affinity to human Integrin alpha5beta1 incubated for 1 hrs in presence of fibronectin by ELISA based spectrophotometric analysis; assay type: protein-complex assay
Integrin alpha-V/beta-6 [37] = molecular target: T3, Integrin alpha-V/beta-6; test: Competitive binding affinity to human Integrin alphaVbeta6 incubated for 1 hrs in presence of […] of TGF-beta1 by ELISA based spectrophotometric analysis; assay type: protein-complex assay

Drug uptake [1]: Active
Drug uptake [2]: Active
Drug uptake [3]: Not_active
Drug uptake [4]: Active
SMILES: Cc1cc(OCCCNC(=O)CCCCCNC(=O)CCCCC[N+]2=C(/C=C/C=C/C=C3/N(C)c4ccc5ccccc5c4C3(C)C)C(C)(C)c3c2ccc2ccccc32)cc(C)c1C(=O)N[C@@H](CNC(=O)CNC(=O)c1cccc(NC(=N)N)c1)C(=O)O

Activity (Integrin alpha-V/beta-3 [5]): Active
Activity (Integrin alpha-5/beta-1 [6]): inactive
Activity (Integrin alpha-5/beta-1 [7]): inactive
Activity (Integrin alpha-V/beta-3 [8]): inactive
fold change (FC) (Integrin alpha-V/beta-6 [9]): 4
fold change (FC) (Integrin alpha-V/beta-6 [10]): 3
fold change (FC) (Integrin alpha-5/beta-1 [11]): 1.6
Activity (Integrin alpha-5/beta-1 [12]): inactive
Activity (Integrin alpha-5/beta-1 [13]): inactive
SMILES: C#CCCC(=O)NCCCOc1cc(C)c(C(=O)N[C@@H](CNC(=O)CNC(=O)c2cccc(NC(=N)N)c2)C(=O)O)c(C)c1
Activity (Integrin alpha-V/beta-3 [14]): Not active; Slight Increase Compared To Control Observed
inhibition (OV-MZ-6 [15]): Active
inhibition (OV-MZ-6 [16]): inactive
inhibition (M21 [17]): inactive
inhibition (OV-MZ-6 [18]): inactive
inhibition (OV-MZ-6 [19]): Active
inhibition (OV-MZ-6 [20]): inactive

fold change (FC) (Integrin alpha-V/beta-3 [23]): 2
fold change (FC) (Integrin alpha-5/beta-1 [24]): 2.4
Activity (Integrin alpha-V/beta-3 [25]): inactive
fold change (FC) (Integrin alpha-5/beta-1 [26]): 1.7
Activity (Integrin alpha-V/beta-3 [8]; filed as agonist): Active
Activity (Integrin alpha-V/beta-3 [27]): inactive
Activity (Integrin alpha-V/beta-3 [28]): inactive
Activity (Integrin alpha-5/beta-1 [29]): Active; Slight Increase Observed
fold change (FC) (Integrin alpha-5/beta-1 [30]): 2
Activity (Integrin alpha-5/beta-1 [31]): inactive
SMILES: C#CCCC(=O)NCCCOc1ccc(C(=O)N[C@H](CC(=O)O)Cc2ccc(OCCCNc3cc(OC)ccn3)cc2)cc1
inhibition (OV-MZ-6 [21]): Active
inhibition (M21 [22]): inactive
Activity (M21 [32]): 80%
inhibition (M21 [33]): Active
inhibition (M21 [34]): inactive

SMILES: CC(C)C[C@H](NC(=O)[C@H](CO)NC(=O)[C@H](CC(=O)O)NC(=O)[C@H](CC(C)C)NC(=O)[C@H](CC(=O)O)NC(=O)[C@@H](NC(=O)[C@@H](N)CCCNC(=N)N)[C@@H](C)O)C(=O)N[C@@H](CCCNC(=N)N)C(=O)N[C@H](C(=O)O)[C@@H](C)O
pIC50 (Integrin alpha-V/beta-3 [35]): < 6.00
pIC50 (Integrin alpha-5/beta-1 [36]): < 6.00
pIC50 (Integrin alpha-V/beta-6 [37]): 7.53
